The results in this text go back to patent US10472336B2, “Modulators of indoleamine 2,3-dioxygenase” (GlaxoSmithKline Intellectual Property (No.2) Limited, priority 2015, dated 2019).

Structures can show the parent of a compound that is named as a salt.

In test [1] the target is T1, indoleamine 2, 3-dioxygenase (IDO1) (Homo sapiens, UniProt P14902). As to the kind of experiment: HeLa IDOi assay (kynurenine detection by mass spectrometry). Details: human epithelial HeLa cells (CCL-2; host or cells: HeLa cells stimulated with human IFN-γ. The test is classed as cell-based. The following applies: IFN-γ stimulated human epithelial HeLa cells, 2 days. The protocol: (§1) Compounds of the present invention were tested via high-throughput cellular assays utilizing detection of kynurenine via mass spectrometry and cytotoxicity as end-points. For the mass spectrometry and cytotoxicity assays, human epithelial HeLa cells (CCL-2; ATCC®, Manassas, Va.) were stimulated with human interferon-γ (IFN-γ) (Sigma-Aldrich Corporation, St. Louis, Mo.) to induce the expression of indoleamine 2, 3-dioxygenase (IDO1). Compounds with IDO1 inhibitory properties decreased the amount of kynurenine produced by the cells via the tryptophan catabolic pathway. Cellular toxicity due to the effect of compound treatment was measured using CellTiter-Glo® reagent (CTG) (Promega Corporation, Madison, Wis.), which is based on luminescent detection of ATP, an indicator of metabolically active cells.
T1 sequence (P14902 whole entry): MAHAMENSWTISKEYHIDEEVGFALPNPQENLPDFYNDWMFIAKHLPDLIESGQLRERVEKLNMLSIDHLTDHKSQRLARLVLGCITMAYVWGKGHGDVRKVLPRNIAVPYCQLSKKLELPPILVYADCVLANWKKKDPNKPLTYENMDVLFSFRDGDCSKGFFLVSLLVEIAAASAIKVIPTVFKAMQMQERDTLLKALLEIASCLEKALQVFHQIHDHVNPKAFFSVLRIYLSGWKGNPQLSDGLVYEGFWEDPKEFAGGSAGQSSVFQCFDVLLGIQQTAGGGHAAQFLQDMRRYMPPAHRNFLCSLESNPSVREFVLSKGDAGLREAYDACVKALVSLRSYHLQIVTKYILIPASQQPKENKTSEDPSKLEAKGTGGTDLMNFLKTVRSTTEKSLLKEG
(§2) In preparation for the assays, test compounds were serially diluted 3-fold in DMSO from a typical top concentration of 5 mM and plated at 0.5 μL in 384-well, polystyrene, clear bottom, tissue culture treated plates with lids (Greiner Bio-One, Kremsmünster, Austria) to generate 11-point dose response curves. Low control wells (0% kynurenine or 100% cytotoxicity) contained either 0.5 μL of DMSO in the presence of unstimulated (−IFN-γ) HeLa cells for the mass spectrometry assay or 0.5 μL of DMSO in the absence of cells for the cytotoxicity assay, and high control wells (100% kynurenine or 0% cytotoxicity) contained 0.5 μL of DMSO in the presence of stimulated (+IFN-γ) HeLa cells for both the mass spectrometry and cytotoxicity assays.
Frozen stocks of HeLa cells were washed and recovered in DMEM high glucose medium with HEPES (Thermo Fisher Scientific, Inc., Waltham, Mass.) supplemented with 10% v/v certified fetal bovine serum (FBS) (Thermo Fisher Scientific, Inc., Waltham, Mass.), and 1× penicillin-streptomycin antibiotic solution (Thermo Fisher Scientific, Inc., Waltham, Mass.). The cells were diluted to 100,000 cells/mL in the supplemented DMEM medium. 50 μL of either the cell suspension, for the mass spectrometry assay, or medium alone, for the cytotoxicity assay, were added to the low control wells, on the previously prepared 384-well compound plates, resulting in 5,000 cells/well or 0 cells/well respectively. IFN-γ was added to the remaining cell suspension at a final concentration of 10 nM, and 50 μL of the stimulated cells were added to all remaining wells on the 384-well compound plates. The plates, with lids, were then placed in a 37° C., 5% CO2 humidified incubator for 2 days.
(§3) Following incubation, the 384-well plates were removed from the incubator and allowed to equilibrate to room temperature for 30 minutes. For the cytotoxicity assay, CellTiter-Glo® was prepared according to the manufacturer's instructions, and 10 μL were added to each plate well. After a twenty minute incubation at room temperature, luminescence was read on an EnVision® Multilabel Reader (PerkinElmer Inc., Waltham, Mass.). For the mass spectrometry assay, 10 μL of supernatant from each well of the compound-treated plates were added to 40 μL of acetonitrile, containing 10 μM of an internal standard for normalization, in 384-well, polypropylene, V-bottom plates (Greiner Bio-One, Kremsmünster, Austria) to extract the organic analytes. Following centrifugation at 2000 rpm for 10 minutes, 10 μL from each well of the acetonitrile extraction plates were added to 90 μL of sterile, distilled H2O in 384-well, polypropylene, V-bottom plates for analysis of kynurenine and the internal standard on the RapidFire 300 (Agilent Technologies, Santa Clara, Calif.) and 4000 QTRAP MS (SCIEX, Framingham, Mass.). MS data were integrated using Agilent Technologies' RapidFire Integrator software, and data were normalized for analysis as a ratio of kynurenine to the internal standard. […]

Test [2] addresses T1, indoleamine 2, 3-dioxygenase (IDO1). As to the kind of experiment: PBMC IDOi assay (kynurenine detection by mass spectrometry). The test is classed as cell-based. Conditions: IFN-γ and LPS stimulated human PBMC, 2 days. The protocol: as §1, with “peripheral blood mononuclear” for “epithelial HeLa”, “(PBMC) (PB003F; AllCells®, Alameda, Calif.)” for “(CCL-2; ATCC®, Manassas, Va.)”, “Mo.) and lipopolysaccharide from Salmonella minnesota (LPS) (Invivogen, San Diego, Calif.)” for “Mo.)”
as §2, with “(−IFN-γ/−LPS) PBMCs” for “(−IFN-γ) HeLa cells”, “(+IFN-γ/+LPS) PBMCs” for “(+IFN-γ) HeLa cells”
Frozen stocks of PBMCs were washed and recovered in RPMI 1640 medium (Thermo Fisher Scientific, Inc., Waltham, Mass.) supplemented with 10% v/v heat-inactivated fetal bovine serum (FBS) (Thermo Fisher Scientific, Inc., Waltham, Mass.), and 1× penicillin-streptomycin antibiotic solution (Thermo Fisher Scientific, Inc., Waltham, Mass.). The cells were diluted to 1,000,000 cells/mL in the supplemented RPMI 1640 medium. 50 μL of either the cell suspension, for the mass spectrometry assay, or medium alone, for the cytotoxicity assay, were added to the low control wells, on the previously prepared 384-well compound plates, resulting in 50,000 cells/well or 0 cells/well respectively. IFN-γ and LPS were added to the remaining cell suspension at final concentrations of 100 ng/ml and 50 ng/ml respectively, and 50 μL of the stimulated cells were added to all remaining wells on the 384-well compound plates. The plates, with lids, were then placed in a 37° C., 5% CO2 humidified incubator for 2 days.
as §3, with “and 40” for “and 10”

As to `CC(C)CN(CC(C)C)c1ccc(C(C)CC(=O)O)cc1Nc1nnc(C2CC2)[nH]1` (stereo not drawn) [Example 48, 3-(3-((5-cyclopropyl-4H-1,2,4-triazol-3-yl)amino)-4-(diisobutylamino)phenyl)butanoic acid], the concentration giving a half-maximal response (EC50) in test [1] is 63.1 nM; in test [2], 25.1 nM.

For `CC(C)CN(CC(C)C)c1ccc([C@@H](C)CC(=O)O)cc1Nc1nc(Cl)ns1` [Example 41, (S)-3-(3-((3-chloro-1,2,4-thiadiazol-5-yl)amino)-4-(diisobutylamino)phenyl)butanoic acid], the EC50 was 63.1 nM in test [1] and 10 nM in test [2].

For the compound `CC(C)CN(CC(C)C)c1ccc([C@H](C)CC(=O)O)cc1Nc1nc(Cl)ns1` [Example 42, (R)-3-(3-((3-chloro-1,2,4-thiadiazol-5-yl)amino)-4-(diisobutylamino)phenyl)butanoic acid], the concentration giving a half-maximal response (EC50) is 39.8 nM in test [1] and 7.94 nM in test [2].

On to `CC(C)CN(c1ccc([C@H](C)CC(=O)O)cc1Nc1nc(C(F)(F)F)ns1)C1CCCCC1` [Example 38, (R)-3-(4-(cyclohexyl(isobutyl)amino)-3-((3-(trifluoromethyl)-1,2,4-thiadiazol-5-yl)amino)phenyl)butanoic acid], for which the EC50 in test [1] is 3.98 nM; in test [2] it was 1 nM.

`CC(C)CN(c1ccc(C(C)CC(=O)O)cc1Nc1ccc(C(F)(F)F)cc1)C1CCCCC1` (stereo not drawn) [Example 66, 3-(4-(cyclohexyl(isobutyl)amino)-3-((4-(trifluoromethyl)phenyl)amino)phenyl)butanoic acid]: the midpoint of the response in test [2], the EC50, lay at 1.26 nM.

In turn, `CC(C)CN(c1ccc(C(C)CC(=O)O)cc1Nc1cccc(C(F)(F)F)c1)C1CCCCC1` (stereo not drawn) [Example 65, 3-(4-(cyclohexyl(isobutyl)amino)-3-((3-(trifluoromethyl)phenyl)amino)phenyl)butanoic acid] gave a half-maximal effective concentration (EC50) in test [2] of 15.8 nM.

In the case of `CC(C)CN(c1ccc(C(C)CC(=O)O)cc1Nc1ccccc1)C1CCCCC1` (stereo not drawn) [Example 68, 3-(4-(cyclohexyl(isobutyl)amino)-3-(phenylamino)phenyl)butanoic acid], in test [2], the response was half-maximal at 3.16 nM (EC50).

In test [1], `CC(C)CN(c1ccc(C(C)CC(=O)O)cc1NC1=N[C@H](C)CS1)C1CCCCC1` (stereo partly drawn) [Example 74, 3-(4-(Cyclohexyl(isobutyl)amino)-3-(((R)-4-methyl-4,5-dihydrothiazol-2-yl)amino)phenyl)butanoic Acid] gave a concentration for a half-maximal effect (EC50) of 398 nM.

With `CC(C)CN(CC(C)C)c1ccc(C(C)CC(=O)O)cc1Nc1nc(C(C)C)cs1` (stereo not drawn) [Example 46, 3-(4-(diisobutylamino)-3-((4-isopropylthiazol-2-yl)amino)phenyl)butanoic acid], the response in test [1] was half-maximal at 126 nM (EC50).

`CC(C)CN(c1ccc(C(C)CC(=O)O)cc1NC1=N[C@@H](C)CS1)C1CCCCC1` (stereo partly drawn) [Example 73, 3-(4-(cyclohexyl(isobutyl)amino)-3-(((S)-4-methyl-4,5-dihydrothiazol-2-yl)amino)phenyl) butanoic acid] had a half-maximal effective concentration (EC50) in test [1] of 398 nM.

`CC(C)CN(CC(C)C)c1ccc(C(C)CC(=O)O)cc1Nc1nnc(C2CC2)s1` (stereo not drawn) [Example 26, 3-(3-((5-cyclopropyl-1,3,4-thiadiazol-2-yl)amino)-4-(diisobutylamino)phenyl)butanoic acid, 2,2,2-trifluoro-acetic acid salt]: in test [1], the EC50 was 5.01 nM.

For the compound `CC(C)CN(c1ccc(C(C)CC(=O)O)cc1Nc1nc2ccccc2o1)C1CCCCC1` (stereo not drawn) [Example 8, 3-(3-(benzo[d]oxazol-2-ylamino)-4-(cyclohexyl(isobutyl)amino)phenyl)butanoic acid], the midpoint of the response in test [1], the EC50, lay at 31.6 nM.

Regarding `CC(C)CN(CC(C)C)c1ccc(C(C)CC(=O)O)cc1Nc1nc(C2CC2)ns1` (stereo not drawn) [Example 30, 3-(3-((3-cyclopropyl-1,2,4-thiadiazol-5-yl)amino)-4-(diisobutylamino)phenyl)butanoic acid], in test [1], the half-maximal effective concentration (EC50) is 50.1 nM.

As to `CC(C)CN(c1ccc([C@H](C)CC(=O)O)cc1NC1CCCCC1)C1CCCCC1` [Example 64, (R)-3-(4-(cyclohexyl(isobutyl)amino)-3-(cyclohexylamino)phenyl)butanoic acid], in test [2], the half-maximal effective concentration (EC50) is 63.1 nM.

On to `CC(C)CN(CC(C)C)c1ccc(C(C)CC(=O)O)cc1Nc1ccnc(Cl)n1` (stereo not drawn) [Example 11, 3-(3-((2-chloropyrimidin-4-yl)amino)-4-(diisobutylamino)phenyl)butanoic acid, 2,2,2-trifluoro-acetic acid salt], for which the concentration giving a half-maximal response (EC50) in test [1] is 100 nM.

`CC(C)CN(c1ccc(C(C)CC(=O)O)cc1Nc1ccc(C#N)cc1)C1CCCCC1` (stereo not drawn) [Example 67, 3-(3-((4-cyanophenyl)amino)-4-(cyclohexyl(isobutyl)amino)phenyl)butanoic acid] showed an EC50 in test [2] of 0.794 nM.

`CC(C)CN(c1ccc(C(C)CC(=O)O)cc1NC1CCOCC1)C1CCCCC1` (stereo not drawn) [Example 70, 3-(4-(Cyclohexyl(isobutyl)amino)-3-((tetrahydro-2H-pyran-4-yl)amino)phenyl)butanoic Acid] showed an EC50 in test [1] of 126 nM.

What is called EC50 is the concentration giving half of the maximal effect. A lower EC50 goes with higher potency in that assay.
